Consider 15 molecules from patent publication EP0041491B1, “New para-substituted 3-phenoxy-1-alkylamino-propanol-2-s having beta receptor blocking properties” (priority 1980, dated 1981).

Data set [1] relates to cardiac beta-adrenoceptors. As to the kind of experiment: Experiment A: blockade of isoprenaline induced heart rate response, i.v. bolus of test compound, reserpinized anaesthetized cat. The data set is classed as in vivo. As to conditions: i.v. bolus injection during isoprenaline infusion, reserpine pretreated, pentobarbital anaesthetized, vagotomized cats. How it is done: (§1) A bilateral vagotomy was performed in the neck. […] The perfusion pressure (PP) was recorded.
For each dose of the test compound the peak reduction of the isoprenaline heart rate response was expressed as per cent blockade according to the formula: [formula]
(§2) Per cent blockade (for each dose) was then plotted against log dose of the test compound. The ED:50 value (i.e. the dose which produced half maximal blockade) was interpolated.

For data set [2], the system named is vascular beta-adrenoceptors. As to the kind of experiment: Experiment A: blockade of isoprenaline induced vasodilatation (hind leg perfusion pressure), i.v. bolus of test compound. To be noted: i.v. bolus injection during isoprenaline infusion, reserpine pretreated cats. Type of data set: in vivo. How it is done:
A bilateral vagotomy was performed in the neck. […] The perfusion pressure (PP) was recorded. […]
as §2

Data set [3] has as its system cardiac beta-adrenoceptors. As to the kind of experiment: Experiment B: blockade of isoprenaline induced heart rate response, i.v. infusion of test compound. The data set is classed as in vivo. As to conditions: i.v. infusion 12 minutes per dose, isoprenaline bolus 10 minutes after start, reserpine pretreated cats. Here is the method: as §1
(§3) An isoprenaline bolus dose which gave a heart rate response which was about 80% of the maximal response was then tested out. Usually this dose of isoprenaline was 0.4 µmol/kg.
(§4) The test compound was then infused intravenously in increasing doses. Each dose was given during 12 minutes with an interval of 18 minutes between doses.
(§5) The control dose of isoprenaline was injected 10 minutes after start of each infusion of the test compound. The dose of the test compound was increased logarithmically until total blockade of the isoprenaline responses was achieved.
(§6) The inhibitory effect of each dose of the test compound was expressed as per cent blockade according to the formula: [formula]
(§7) Per cent blockade was then plotted against log dose of the blocker and the ED:50-value was interpolated (cf. above). The ED:50 for heart rate blockade and ED:50 for blockade of the vaso- dilatation could then be compared and the selectivity for the compound estimated. Intrinsic sympa- thomimetic activity was evaluated as the maximal heart rate elevation during infusion of the test compound.

The test system of data set [4] is vascular beta-adrenoceptors. As to the kind of experiment: Experiment B: blockade of isoprenaline induced vasodilatation, i.v. infusion of test compound. As to conditions: i.v. infusion 12 minutes per dose, isoprenaline bolus 10 minutes after start, reserpine pretreated cats. The data set is classed as in vivo. How it is done:
as §1, §3, §4, §5, §6, §7

The next data set can be described thus: in vivo. To be noted: cat, iv.
The nature of data set [5]: Experiment A: plasma half life estimated by the method of Levy from time to 50% recovery of the blockade. To be noted: cat, iv.
Experimental: (§8) All compounds were thereby tested in two different experimental models but with the same species, premedication and preparation. Cats (males and females weighing 2.5-3.5 kg) were pretreated with reserpine (5 mg/kg bodyweight administered intraperitoneally) about 16 hours before the experiments. The animals were pretreated with reserpine in order to eliminate the endogenous sympathetic control of heart rate and vascular smooth muscle tone. The cats were anaesthetized with pentobarbital (30 mg/kg bodyweight administered i.p.) and artificially ventilated with room air. A bilateral vagotomy was performed in the neck. Blood pressure was obtained from a cannulated carotid artery and heart rate was recorded from a cardiotachometer, triggered by the oscillations in blood pressure. The femoral artery of one hind leg was cannulated in both directions. Blood taken from the proximal part was pumped, at a constant flowrate, back into the distal part of the artery by means of a roller pump (Watson-Marlow). The perfusion pressure (PP) was recorded. Changes in PP indicated changes in the peripheral vascular resistance of the leg.
(§9) The maximal heart rate and vasodilator responses to isoprenaline were established by injecting a high i.v. bolus dose of isoprenaline (2.0 µmol/kg). An isoprenaline infusion rate was then established which gave a heart rate response (at steady state) which was about 80% of the maximal heart rate response to isoprenaline. Usually this dose of isoprenaline was 0.25 µmol/kg x min. The vasodilator response to this dose of isoprenaline was also approximately 80% of maximal. The isoprenaline dose was then infused during periods of 20 minutes with an interval of 20 minutes between the infusion periods.
(§10) The test compound was administered as an intravenous bolus injection seven minutes after start of each isoprenaline infusion. The dose of the test compound was increased until total blockade of the isoprenaline responses was achieved.
(§11) The plasma half life was estimated by the method of Levy (Nagashima, R., O'Reilly, R. A. and Levy, G., Clin. Pharmacol. Ther., 10 (1969) 22). The time from the peak inhibitory effect of each dose until 50% recovery was determined and plotted against log dose of the compound. The slope of the line obtained was calculated with linear regression. The slope equals 2.303/KE where Ke is the rate constant for elimination. The plasma half life (t 1/2) was then calculated according to the relation t 1/2 = 0.693/KE.

Experimental for in vivo: as §8, §9, §10, §11

Regarding `COC(=O)CCc1ccc(OCC(O)CNC(C)C)cc1` (centres unmarked) [Ex. 1, methyl 3-[4-(2-hydroxy-3.-isopropylaminopropoxy)phenyl]propanoate], the “Blockade of isoprenaline induced effects Heart rate ED:50” value in data set [1] is 2.3 µmol/kg; in data set [3], 3.6 µmol/kg/min. Besides, the “Blockade of isoprenaline induced effects Vasodilatation ED:50” value is about 32.0 µmol/kg in data set [2] and over 25.6 µmol/kg/min in data set [4]. This molecule also displayed a half-life in “in vivo” of 1 min.

`CCOC(=O)CCc1ccc(OCC(O)CNC(C)C)cc1` (centres unmarked) [Ex. 2, Ethyl 3-[4-(2-hydroxy-3-isopropylaminopropoxy)-phenyl]propanoate]: the “Blockade of isoprenaline induced effects Heart rate ED:50” value in data set [1] was found to be 4.7 µmol/kg; in data set [3], 2.1 µmol/kg/min. Moreover, the “Blockade of isoprenaline induced effects Vasodilatation ED:50” value in data set [2] is over 51.2 µmol/kg; in data set [4], 12.0 µmol/kg/min. The half-life in data set [5] is 1 min.

With `COCCOC(=O)CCc1ccc(OCC(O)CNC(C)C)cc1` (centres unmarked) [Ex. 3, 2-Methoxyethyl 3-[4-(2-hydroxy-3-isopropylaminopropoxy)phenyl]propanoate], the “Blockade of isoprenaline induced effects Heart rate ED:50” value was 26.0 µmol/kg in data set [1] and 1.3 µmol/kg/min in data set [3]. Further, the “Blockade of isoprenaline induced effects Vasodilatation ED:50” value in data set [2] was about 30.0 µmol/kg; in data set [4], over 25.6 µmol/kg/min. Also, the half-life in data set [5] is 1.5 min.

`COCCOC(=O)CCCc1ccc(OCC(O)CNC(C)C)cc1` (centres unmarked) [Ex. 4, 2-Methoxyethyl 4-[4-(2-hydroxy-3-isopropylaminopropoxy)phenyl]butanoate]: the figures for the “Blockade of isoprenaline induced effects Heart rate ED:50” value in data set [1] and in data set [3] were 3.0 µmol/kg and 1.1 µmol/kg/min, respectively. Also, the “Blockade of isoprenaline induced effects Vasodilatation ED:50” value was determined as 51.8 µmol/kg in data set [2] and 2.3 µmol/kg/min in data set [4]. The half-life in data set [5] is 1.7 min.

As for `CCCOC(=O)CCc1ccc(OCC(O)CNC(C)C)cc1` (centres unmarked) [Ex. 5, Propyl 3-[4-(2-hydroxy-3-isopropylaminopropoxy)phenyl]propanoate], the “Blockade of isoprenaline induced effects Heart rate ED:50” value in data set [1] is about 20.0 µmol/kg; in data set [3], 9.0 µmol/kg/min. The “Blockade of isoprenaline induced effects Vasodilatation ED:50” value in data set [2] is over 51.2 µmol/kg; in data set [4], over 25.6 µmol/kg/min. For the same molecule, the half-life in data set [5] is 0.3 min.

With `CC(C)NCC(O)COc1ccc(CCC(=O)OC(C)C)cc1` (centres unmarked) [Ex. 6, Isopropyl 3-[4-(2-hydroxy-3-isopropylaminopropoxy)phenyl]propanoate], the “Blockade of isoprenaline induced effects Heart rate ED:50” value in data set [1] was determined as 1.7 µmol/kg; in data set [3] it was 0.9 µmol/kg/min. The “Blockade of isoprenaline induced effects Vasodilatation ED:50” value in data set [2] was over 12.8 µmol/kg; in data set [4], over 6.4 µmol/kg/min. In addition, in data set [5], the half-life is 3.5 min.

`CCOC(=O)CCCc1ccc(OCC(O)CNC(C)C)cc1` (centres unmarked) [Ex. 7, Ethyl 4-[4-(2-hydroxy-3-isopropylaminopropoxy)phenyl]butanoate]: the “Blockade of isoprenaline induced effects Heart rate ED:50” value was 1.8 µmol/kg in data set [1] and 1.5 µmol/kg/min in data set [3]. For the same molecule, the “Blockade of isoprenaline induced effects Vasodilatation ED:50” value is over 51.0 µmol/kg in data set [2] and over 6.4 µmol/kg/min in data set [4]. The half-life in data set [5] was 3.3 min.

As to `CCOC(=O)CCCc1ccc(OCC(O)CNC(C)C)c(Br)c1` (centres unmarked) [Ex. 8, Ethyl 4-[3-bromo-4-(2-hydroxy-3-isopropylaminopropoxy)phenyl]butanoate], the “Blockade of isoprenaline induced effects Heart rate ED:50” value in data set [1] is 2.1 µmol/kg; in data set [3] it was 1.2 µmol/kg/min. Moreover, the “Blockade of isoprenaline induced effects Vasodilatation ED:50” value in data set [2] was over 17.0 µmol/kg; in data set [4], over 6.4 µmol/kg/min. Besides, the half-life in data set [5] is about 8 min.

On to `COC(=O)CCc1ccc(OCC(O)CNC(C)C)c(OC)c1` (centres unmarked) [Ex. 15, methyl 3-[4-(2-hydroxy-3-isopropylaminopropoxy)-3-methoxyphenyl]propanoate], for which the “Blockade of isoprenaline induced effects Heart rate ED:50” value in data set [1] was 0.9 µmol/kg; in data set [3] it was 1.9 µmol/kg/min. Moreover, the “Blockade of isoprenaline induced effects Vasodilatation ED:50” value in data set [2] was about 20.0 µmol/kg; in data set [4] it was 18.0 µmol/kg/min. Besides, the half-life in data set [5] is 1 min.

`CCOC(=O)CCc1ccc(OCC(O)CNC(C)C)c(Br)c1` (centres unmarked) [Ex. 20, ethyl 3-[3-bromo-4-(2-hydroxy-3-isopropylaminopropoxy)phenyl]propanoate]: the results for the “Blockade of isoprenaline induced effects Heart rate ED:50” value in data set [1] and in data set [3] were 0.45 µmol/kg and 1.2 µmol/kg/min, respectively. Moreover, the “Blockade of isoprenaline induced effects Vasodilatation ED:50” value in data set [2] is over 12.8 µmol/kg; in data set [4] it was over 6.4 µmol/kg/min. In addition, the half-life in data set [5] was 2.2 min.

Regarding `CCOC(=O)CCc1ccc(OCC(O)CNC(C)C)c(OC)c1` (centres unmarked) [Ex. 21, ethyl 3-[4-(2-hydroxy-3-isopropylaminopropoxy)-3-methoxyphenyl]propanoate], the entries for the “Blockade of isoprenaline induced effects Heart rate ED:50” value in data set [1] and in data set [3] were 0.8 µmol/kg and 2.05 µmol/kg/min, respectively. The entries for the “Blockade of isoprenaline induced effects Vasodilatation ED:50” value in data set [2] and in data set [4] were over 52 µmol/kg and over 6.4 µmol/kg/min, respectively. The half-life in data set [5] is 0.9 min.

On to `CCOC(=O)CCc1ccc(OCC(O)CNC(C)C)c(OCC)c1` (centres unmarked) [Ex. 22, ethyl 3-[3-ethoxy-4-(2-hydroxy-3-isopropylaminopropoxy)phenyl]propanoate], for which the “Blockade of isoprenaline induced effects Heart rate ED:50” value in data set [1] amounted to 2.0 µmol/kg; in data set [3] it was 0.6 µmol/kg/min. Besides, the “Blockade of isoprenaline induced effects Vasodilatation ED:50” value in data set [2] was over 52 µmol/kg; in data set [4], 0.8 µmol/kg/min. Besides, in data set [5], the half-life is 0.9 min.

As for `CCOC(=O)CCc1ccc(OCC(O)CNC(C)C)c(Cl)c1` (centres unmarked) [Ex. 23, ethyl 3-[3-chloro-4-(2-hydroxy-3-isopropylaminopropoxy)phenyl]propanoate], the “Blockade of isoprenaline induced effects Heart rate ED:50” value in data set [1] is 1.8 µmol/kg. In data set [2], the “Blockade of isoprenaline induced effects Vasodilatation ED:50” value is over 52 µmol/kg. The half-life in data set [5] was 1.8 min.

As for `COc1cc(CCC(=O)OC(C)C)ccc1OCC(O)CNC(C)C` (centres unmarked) [Ex. 24, isopropyl 3-[4-(2-hydroxy-3-isopropylaminopropoxy)-3-methoxyphenyl]propanoate], the “Blockade of isoprenaline induced effects Heart rate ED:50” value in data set [1] turned out to be 1.2 µmol/kg. In addition, in data set [2], the “Blockade of isoprenaline induced effects Vasodilatation ED:50” value was over 12.8 µmol/kg. Further, the half-life in data set [5] is 2.1 min.

With `CCOC(=O)CCc1ccc(OCC(O)CNC(C)C)c(F)c1` (centres unmarked) [Ex. 25, ethyl 3-[3-fluoro-4-(2-hydroxy-3-isopropylaminopropoxy)phenyl]propanoate], the entries for the “Blockade of isoprenaline induced effects Heart rate ED:50” value in data set [1] and in data set [3] were 0.6 µmol/kg and 2.1 µmol/kg/min, respectively. Also, the “Blockade of isoprenaline induced effects Vasodilatation ED:50” value was over 12.8 µmol/kg in data set [2] and over 6.4 µmol/kg/min in data set [4]. For the same molecule, the half-life in data set [5] was 0.9 min.
